This note sets out measurements from patent US9056859B2, “Inhibitors of the renal outer medullary potassium channel” (Merck Sharp & Dohme Corp., priority 2010, dated 2015).

This test has as its target Kir1.1 (ROMK1) (Homo sapiens (Human), UniProt P48048). The experiment in a line: ROMK electrophysiology assay (IonWorks Quattro whole cell voltage clamp). The class given is cell-based. For orientation: The patch-clamp technique gives a direct electrical read-out from membranes.
[1] abbreviates: Chinese hamster ovary cells stably expressing Kir1.1, block during voltage step to 0 mV, 6 min compound incubation, read-out: ROMK Electrophysiology Assay IC50.

Where two headings read alike, the source gives them in different places.

Kir1.1 (ROMK1), sequence (P48048 whole entry): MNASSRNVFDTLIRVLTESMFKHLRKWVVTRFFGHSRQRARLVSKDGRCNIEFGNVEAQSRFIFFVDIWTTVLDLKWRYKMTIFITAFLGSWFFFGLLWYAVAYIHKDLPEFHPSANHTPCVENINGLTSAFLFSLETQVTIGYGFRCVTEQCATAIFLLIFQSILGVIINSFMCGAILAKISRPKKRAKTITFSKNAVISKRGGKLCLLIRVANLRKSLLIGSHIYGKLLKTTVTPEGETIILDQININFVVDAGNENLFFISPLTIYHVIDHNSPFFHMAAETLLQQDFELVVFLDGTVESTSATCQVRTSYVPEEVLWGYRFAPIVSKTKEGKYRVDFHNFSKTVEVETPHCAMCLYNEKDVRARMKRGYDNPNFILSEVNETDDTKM

As a reminder, the IC50 is the concentration that gives 50% inhibition. As for `Cc1c(CCN2CCN(C(=O)C3CCc4nc(-n5cnnn5)ccc43)CC2)ccc2c1COC2=O` (single isomer, unassigned) [Example 96], the half-maximal inhibitory concentration (IC50) under setting [1] came out at 61 nM.

For `C[C@H]1Cc2cc(CCN3CCN(C(=O)C4CCc5nc(-n6cnnn6)ccc54)CC3)ccc2C(=O)O1` (single isomer, unassigned) [Example 177], the IC50 under setting [1] was found to be 100 nM.

In turn, `O=C1OCc2cc(CCN3CCCN(C(=O)Cc4ccc(-n5cnnn5)cc4)CC3)ccc21` [Example 11] showed an IC50 of 12 nM.

Turning to `N#Cc1ccc(CCN2CCN(C(=O)Cc3ccc(-n4cnnn4)cc3)CC2)cc1F` [Example 39], under setting [1], the IC50 worked out at 63 nM.

In turn, `COc1cc(CC(=O)N2CCN(CCc3ccc4c(c3C)COC4=O)CC2)c(F)cc1C#N` [Example 48] gave a concentration for half-maximal inhibition (IC50) of 35 nM.

As to `Cc1c(CCN2CCN(C(=O)Cc3cc(F)c(C#N)cc3F)CC2)ccc2c1COC2=O` [Example 59], the IC50 under setting [1] was determined as 94 nM.

Consider `Cc1c(CCN2CCN(C(=O)Cc3ccc(-n4cnnn4)cc3)CC2)ccc(F)c1C#N` [Example 122], for which the IC50 under setting [1] was found to be 37 nM.

Regarding `Cc1c([C@@H](O)CN2CCN(C(=O)Cc3ccc(-n4cnnn4)nc3)C3CC32)ccc2c1COC2=O` (stereo partly drawn) [Example 217, 5-[(1R)-1-hydroxy-2-(5-{[6-(1H-tetrazol-1-yl)pyridin-3-yl]acetyl}-2,5-diazabicyclo[4.1.0]hept-2-yl)ethyl]-4-methyl-2-benzofuran-1(3H)-one], the half-inhibitory concentration (IC50) under setting [1] is 56 nM.
